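The compound was tested at five concentrations on cells cultured in 96-well plates, with a 48-hour exposure period. Here, GI50 denotes the concentration required for 50% inhibition of growth.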 Active and inactive are the calls of the source. Rule as the data show it: active = GI50 up to about 1.1 µM and inactive = higher.
Key:
Assay in all cases: inhibition of tumour cell growth, NCI panel, 48 h
786-0 = test system: 786-0
A498 = test system: A498
CCRF-CEM = test system: CCRF-CEM
HOP-62 = test system: HOP-62
HT-29 = test system: HT-29
LOX IMVI = test system: LOX IMVI
Malme-3M = test system: Malme-3M
NCI-H226 = test system: NCI-H226
NCI-H23 = test system: NCI-H23
OVCAR-5 = test system: OVCAR-5
OVCAR-8 = test system: OVCAR-8
SF-539 = test system: SF-539
SK-MEL-28 = test system: SK-MEL-28
SW-620 = test system: SW-620
U-251 = test system: U-251
UO-31 = test system: UO-31
DU-145 = test system: DU-145
PC-3 = test system: PC-3
T47D = test system: T47D
MCF7 = test system: MCF7

Measured: GI50

CCOC(=O)c1[nH]c2c(OC)n[n+]([O-])cc2c1[N+](=O)[O-]
inactive: 786-0 16.4 µM | A498 21.8 µM | CCRF-CEM 26.1 µM | HOP-62 56.8 µM | HT-29 15.9 µM | LOX IMVI 16.4 µM | Malme-3M 18.3 µM | NCI-H226 26.9 µM | NCI-H23 10 µM | OVCAR-5 19.6 µM | OVCAR-8 19.9 µM | SF-539 27.9 µM | SK-MEL-28 15.7 µM | SW-620 15.7 µM | U-251 17 µM | UO-31 22 µM

CN(C(=O)C12C3C4C5C3C1(C(=O)C13C6C7C8C6C1C8C73)C5C42)C(C)(C)C (configuration not stated)
inactive: 786-0 > 50 µM | A498 > 50 µM | CCRF-CEM > 24 µM | HOP-62 > 50 µM | HT-29 > 37.8 µM | LOX IMVI > 21 µM | Malme-3M > 50 µM | NCI-H226 > 50 µM | NCI-H23 > 50 µM | OVCAR-5 > 50 µM | OVCAR-8 > 50 µM | SF-539 > 50 µM | SK-MEL-28 > 50 µM | SW-620 > 20.9 µM | U-251 > 50 µM | UO-31 > 50 µM

Clc1ccc(C2=Nc3ccccc3SC(c3ccc(Cl)c(Cl)c3)C2)c(Cl)c1 (configuration not stated)
inactive: 786-0 14.5 µM | A498 20.6 µM | CCRF-CEM 3.11 µM | HOP-62 12.6 µM | HT-29 11.4 µM | LOX IMVI 8.15 µM | Malme-3M 16.1 µM | NCI-H226 19 µM | NCI-H23 15.3 µM | OVCAR-5 17.1 µM | OVCAR-8 15.3 µM | SF-539 17.7 µM | SK-MEL-28 15.7 µM | SW-620 6.9 µM | U-251 17.8 µM | UO-31 14.4 µM

CCOC(=O)c1[nH]c2nc(SC)nc(NC)c2c1N
inactive: 786-0 > 100 µM | A498 > 100 µM | CCRF-CEM 60 µM | DU-145 > 100 µM | HOP-62 > 100 µM | HT-29 47.3 µM | LOX IMVI 43.2 µM | Malme-3M > 100 µM | NCI-H226 42.8 µM | NCI-H23 > 100 µM | OVCAR-5 > 100 µM | OVCAR-8 > 100 µM | PC-3 > 100 µM | SK-MEL-28 > 100 µM | SW-620 > 100 µM | T47D 83.8 µM | U-251 > 100 µM | UO-31 > 100 µM

Clc1ccc(SCCCCCCCCCCSc2ccc(Cl)cc2)cc1
inactive: 786-0 > 55.6 µM | A498 > 73.8 µM | CCRF-CEM > 100 µM | HOP-62 > 76.2 µM | HT-29 > 100 µM | LOX IMVI > 100 µM | Malme-3M > 56.5 µM | NCI-H226 > 100 µM | NCI-H23 > 100 µM | OVCAR-5 > 61 µM | OVCAR-8 > 61 µM | SF-539 > 100 µM | SK-MEL-28 > 100 µM | SW-620 37.5 µM | U-251 > 57.4 µM | UO-31 > 100 µM

COC1O[C@@H]2COC(C)(C)O[C@@H]2C(=O)N1Nc1ccc([N+](=O)[O-])cc1 (some centres not stated)
inactive: 786-0 34.2 µM | A498 > 100 µM | CCRF-CEM > 10 µM | HOP-62 > 100 µM | HT-29 63 µM | LOX IMVI 31.9 µM | Malme-3M > 100 µM | NCI-H226 > 100 µM | NCI-H23 > 100 µM | OVCAR-5 > 100 µM | OVCAR-8 > 100 µM | SF-539 > 100 µM | SK-MEL-28 > 100 µM | SW-620 25.1 µM | U-251 > 100 µM | UO-31 > 100 µM

C[C@H]1C(=O)CC[C@]2(C)CCC(C(C)(C)O)CC12O (some centres not stated)
inactive: 786-0 > 100 µM | A498 > 100 µM | CCRF-CEM > 100 µM | HOP-62 > 100 µM | HT-29 > 100 µM | LOX IMVI > 100 µM | Malme-3M > 100 µM | NCI-H226 > 100 µM | NCI-H23 > 100 µM | OVCAR-5 > 100 µM | OVCAR-8 > 100 µM | SF-539 > 100 µM | SK-MEL-28 > 100 µM | SW-620 > 100 µM | U-251 > 100 µM | UO-31 > 100 µM

C/C(=N\NC(=O)c1ccncc1)c1ccccc1F
inactive: 786-0 > 10 µM | A498 > 10 µM | CCRF-CEM > 10 µM | HOP-62 > 10 µM | LOX IMVI > 10 µM | MCF7 > 10 µM | Malme-3M > 10 µM | NCI-H226 > 10 µM | NCI-H23 > 10 µM | OVCAR-5 > 10 µM | OVCAR-8 > 10 µM | PC-3 > 10 µM | SF-539 > 10 µM | SK-MEL-28 > 10 µM | SW-620 > 10 µM | T47D > 10 µM | U-251 > 10 µM | UO-31 > 10 µM

Reference: ChEMBL document CHEMBL1201862, “PubChem BioAssay data set” (2004)
